From US4257941A, “Polycyclic nitrogen-containing compounds” (BASF Aktiengesellschaft, priority 1976, dated 1981)

What was measured:
rye = test: Growth height of rye, greenhouse (Example 8); format: in vivo, rye (Petkuser); conditions: for Plant height relative: control 100
Source text: (§1) In the greenhouse, the four cereals wheat ("Opal" variety), rye ("Petkuser"), barley ("Villa") and oats ("Flamingskrone") were sown in plastic dishes 11.5 cm in diameter in a sandy loam adequately supplied with nutrients. The active ingredients were applied at various rates to the soil and to the leaves. When applied to the soil, the active ingredient were sprayed onto the surface of the soil on the day of sowing; in the case of leaf treatment, the leaves were sprayed in the usual manner at a growth height of the plants of 10 cm. During the 18 day growth period, the treated plants grew much more slowly than the untreated control, a fact later confirmed by measurements of the stem length. Measurements were taken of 100 plants from each series.
(§2) The prior art agent used for comparison purposes was N-2-chloroethyl-N,N,N-trimethylammonium chloride (CCC; German Printed Application DAS No. 1,294,734).

wheat = test: Growth height of wheat, greenhouse (Example 7); format: in vivo, wheat (Opal variety); conditions: for Plant height relative: control 100
Source text: as §1, §2

barley = test: Growth height of barley, greenhouse (Example 9); format: in vivo, barley (Villa); conditions: for Plant height relative: control 100
Source text: as §1, §2

lawns = test: Long-term action on lawns (Example 14); format: in vivo; conditions: for First cutting, green weight relative / First cutting, growth height relative / Second cutting, green weight relative / Second cutting, growth height relative / Third cutting, green weight relative: control 100

Brc1ccc(N2N=NC3C4CC(C5N=NC45)C32)cc1 (centres unmarked) [drawing 349]
Plant height (rye; soil, 0.5 kg/ha): 23.0 cm | Plant height relative (rye; soil, 0.5 kg/ha): 79.3 | Plant height (rye; soil, 1.0 kg/ha): 22.5 cm | Plant height relative (rye; soil, 1.0 kg/ha): 77.6 | Plant height (rye; soil, 2.0 kg/ha): 19.0 cm | Plant height relative (rye; soil, 2.0 kg/ha): 65.5 | Plant height (rye; soil, 6.0 kg/ha): 9.0 cm | Plant height relative (rye; soil, 6.0 kg/ha): 31.0

Brc1ccc(N2N=NC3C4CC(C5N=NC45)C32)cc1 (centres unmarked) [drawing 345]
Plant height (wheat; soil, 0.5 kg/ha): 27.5 cm | Plant height relative (wheat; soil, 0.5 kg/ha): 88.7 | Plant height (wheat; soil, 1.0 kg/ha): 22.5 cm | Plant height relative (wheat; soil, 1.0 kg/ha): 72.6 | Plant height (wheat; soil, 2.0 kg/ha): 15.5 cm | Plant height relative (wheat; soil, 2.0 kg/ha): 50.0 | Plant height (wheat; soil, 6.0 kg/ha): 11.5 cm | Plant height relative (wheat; soil, 6.0 kg/ha): 31.7

Brc1ccc(N2N=NC3C4CC(C5N=NC45)C32)cc1 (centres unmarked) [drawing 355]
Plant height (barley; leaf, 0.125 kg/ha): 25.5 cm | Plant height relative (barley; leaf, 0.125 kg/ha): 85.0 | Plant height (barley; leaf, 0.5 kg/ha): 23.5 cm | Plant height relative (barley; leaf, 0.5 kg/ha): 78.3 | Plant height (barley; leaf, 1.0 kg/ha): 22.0 cm | Plant height relative (barley; leaf, 1.0 kg/ha): 73.3 | Plant height (barley; leaf, 2.0 kg/ha): 20.5 cm | Plant height relative (barley; leaf, 2.0 kg/ha): 68.3 | Plant height (barley; leaf, 4.0 kg/ha): 20.0 cm | Plant height relative (barley; leaf, 4.0 kg/ha): 66.7

Clc1ccc(N2N=NC3C4CC(C5N=NC45)C32)cc1 (centres unmarked) [drawing 346]
Plant height (wheat; leaf, 0.125 kg/ha): 24.0 cm | Plant height relative (wheat; leaf, 0.125 kg/ha): 80.0 | Plant height (wheat; leaf, 0.5 kg/ha): 22.0 cm | Plant height relative (wheat; leaf, 0.5 kg/ha): 73.3 | Plant height (wheat; leaf, 1.0 kg/ha): 20.0 cm | Plant height relative (wheat; leaf, 1.0 kg/ha): 66.6 | Plant height (wheat; leaf, 2.0 kg/ha): 19.0 cm | Plant height relative (wheat; leaf, 2.0 kg/ha): 63.3 | Plant height (wheat; leaf, 4.0 kg/ha): 17.5 cm | Plant height relative (wheat; leaf, 4.0 kg/ha): 58.3

Brc1ccc(N2N=NC3C4CC(C5N=NC45)C32)cc1 (centres unmarked) [drawing 351]
Plant height (rye; leaf, 0.125 kg/ha): 25.0 cm | Plant height relative (rye; leaf, 0.125 kg/ha): 84.7 | Plant height (rye; leaf, 0.5 kg/ha): 20.5 cm | Plant height relative (rye; leaf, 0.5 kg/ha): 69.5 | Plant height (rye; leaf, 1.0 kg/ha): 22.0 cm | Plant height relative (rye; leaf, 1.0 kg/ha): 74.6 | Plant height (rye; leaf, 2.0 kg/ha): 18.0 cm | Plant height relative (rye; leaf, 2.0 kg/ha): 61.0 | Plant height (rye; leaf, 4.0 kg/ha): 18.5 cm | Plant height relative (rye; leaf, 4.0 kg/ha): 62.7

Clc1ccc(N2N=NC3C4CC(C5N=NC45)C32)cc1 (centres unmarked) [drawing 354]
Plant height (barley; leaf, 0.125 kg/ha): 24.0 cm | Plant height relative (barley; leaf, 0.125 kg/ha): 80.0 | Plant height (barley; leaf, 0.5 kg/ha): 23.0 cm | Plant height relative (barley; leaf, 0.5 kg/ha): 76.7 | Plant height (barley; leaf, 1.0 kg/ha): 21.5 cm | Plant height relative (barley; leaf, 1.0 kg/ha): 71.7 | Plant height (barley; leaf, 2.0 kg/ha): 20.5 cm | Plant height relative (barley; leaf, 2.0 kg/ha): 68.3 | Plant height (barley; leaf, 4.0 kg/ha): 18.5 cm | Plant height relative (barley; leaf, 4.0 kg/ha): 61.7

Cc1ccccc1N1N=NC2C3CC(C4N=NC34)C21 (centres unmarked)
First cutting, green weight (lawns; 0.5 kg/ha): 26.8 g | First cutting, growth height (lawns; 0.5 kg/ha): 14.0 cm | Second cutting, green weight (lawns; 0.5 kg/ha): 23.5 g | Second cutting, growth height (lawns; 0.5 kg/ha): 13.0 cm | Third cutting, green weight (lawns; 0.5 kg/ha): 16.5 g | First cutting, green weight relative (lawns; 0.5 kg/ha): 75.9 | First cutting, growth height relative (lawns; 0.5 kg/ha): 77.8 | Second cutting, green weight relative (lawns; 0.5 kg/ha): 88.0 | Second cutting, growth height relative (lawns; 0.5 kg/ha): 88.4 | Third cutting, green weight relative (lawns; 0.5 kg/ha): 108.6 | First cutting, green weight (lawns; 1.0 kg/ha): 25.5 g | First cutting, growth height (lawns; 1.0 kg/ha): 14.0 cm | Second cutting, green weight (lawns; 1.0 kg/ha): 22.0 g | Second cutting, growth height (lawns; 1.0 kg/ha): 12.5 cm | Third cutting, green weight (lawns; 1.0 kg/ha): 16.3 g | First cutting, green weight relative (lawns; 1.0 kg/ha): 72.2 | First cutting, growth height relative (lawns; 1.0 kg/ha): 77.8 | Second cutting, green weight relative (lawns; 1.0 kg/ha): 82.4 | Second cutting, growth height relative (lawns; 1.0 kg/ha): 85.0 | Third cutting, green weight relative (lawns; 1.0 kg/ha): 107.2 | First cutting, green weight (lawns; 2.0 kg/ha): 20.0 g | First cutting, growth height (lawns; 2.0 kg/ha): 12.5 cm | Second cutting, green weight (lawns; 2.0 kg/ha): 21.4 g | Second cutting, growth height (lawns; 2.0 kg/ha): 22.0 cm | Third cutting, green weight (lawns; 2.0 kg/ha): 15.7 g | First cutting, green weight relative (lawns; 2.0 kg/ha): 56.7 | First cutting, growth height relative (lawns; 2.0 kg/ha): 69.5 | Second cutting, green weight relative (lawns; 2.0 kg/ha): 80.1 | Second cutting, growth height relative (lawns; 2.0 kg/ha): 74.8 | Third cutting, green weight relative (lawns; 2.0 kg/ha): 103.3 | First cutting, green weight (lawns; 4.0 kg/ha): 13.2 g | First cutting, growth height (lawns; 4.0 kg/ha): 9.5 cm | Second cutting, green weight (lawns; 4.0 kg/ha): 15.3 g | Second cutting, growth height (lawns; 4.0 kg/ha): 7.5 cm | Third cutting, green weight (lawns; 4.0 kg/ha): 13.9 g | First cutting, green weight relative (lawns; 4.0 kg/ha): 37.4 | First cutting, growth height relative (lawns; 4.0 kg/ha): 52.8 | Second cutting, green weight relative (lawns; 4.0 kg/ha): 57.3 | Second cutting, growth height relative (lawns; 4.0 kg/ha): 51.0 | Third cutting, green weight relative (lawns; 4.0 kg/ha): 91.4

Brc1ccc(N2N=NC3C4CC(C5N=NC45)C32)cc1 (centres unmarked) [drawing 353]
Plant height (barley; soil, 0.5 kg/ha): 30.5 cm | Plant height relative (barley; soil, 0.5 kg/ha): 96.8 | Plant height (barley; soil, 1.0 kg/ha): 29.0 cm | Plant height relative (barley; soil, 1.0 kg/ha): 92.1 | Plant height (barley; soil, 2.0 kg/ha): 24.5 cm | Plant height relative (barley; soil, 2.0 kg/ha): 77.8 | Plant height (barley; soil, 6.0 kg/ha): 19.0 cm | Plant height relative (barley; soil, 6.0 kg/ha): 60.3
